The record followed here is article PMC5218480 (PLoS ONE, 2017).

SMILES strings stand for the structures.

For the assay, the system named is MV-4-11 cells. As to the kind of experiment: Gene expression microarray analysis (Affymetrix PrimeView) and GSEA. In kind it is cell-based, human. The arrangement: RFU PODN (11730768_x_at) / Fold change /veh PODN (11730768_x_at) / RFU LINC00158 (11744669_a_at) / Fold change /veh LINC00158 (11744669_a_at) / RFU DUSP10 (11751237_a_at) / Fold change /veh DUSP10 (11751237_a_at) / RFU ID3 (11757404_x_at) / Fold change /veh ID3 (11757404_x_at) / RFU PLEKHG5 (11737974_s_at) / Fold change /veh PLEKHG5 (11737974_s_at) / RFU LRRC4B (11730491_at) / Fold change /veh LRRC4B (11730491_at) / RFU GIMAP4 (11747438_a_at) / Fold change /veh GIMAP4 (11747438_a_at) / RFU KRT8 (11758183_x_at) / Fold change /veh KRT8 (11758183_x_at) / RFU CNN1 (11734310_a_at) / Fold change /veh CNN1 (11734310_a_at) / RFU VPS37D (11726825_at) / Fold change /veh VPS37D (11726825_at) / RFU C10orf10 (11716522_x_at) / Fold change /veh C10orf10 (11716522_x_at) / RFU KIR2DL2 /// KIR2DL4 /// KIR2DL5A /// KIR2DL5B /// KIR2DS1 /// KIR2DS2 /// KIR2DS3 /// KIR2DS4 /// KIR3DL3 /// KIR3DL3 /// KIR3DS1 (11738374_at) / Fold change /veh KIR2DL2 /// KIR2DL4 /// KIR2DL5A /// KIR2DL5B /// KIR2DS1 /// KIR2DS2 /// KIR2DS3 /// KIR2DS4 /// KIR3DL3 /// KIR3DL3 /// KIR3DS1 (11738374_at) / RFU C1QL1 (11718748_at) / Fold change /veh C1QL1 (11718748_at) / RFU TMPRSS4 (11747572_a_at) / Fold change /veh TMPRSS4 (11747572_a_at) / RFU HAMP (11756126_x_at) / Fold change /veh HAMP (11756126_x_at) / RFU RNFT2 (11725882_a_at) / Fold change /veh RNFT2 (11725882_a_at) / RFU NR4A2 (11747474_a_at) / Fold change /veh NR4A2 (11747474_a_at) / RFU ABCC12 (11746883_a_at) / Fold change /veh ABCC12 (11746883_a_at) / RFU TMEM136 (11760407_x_at) / Fold change /veh TMEM136 (11760407_x_at) / RFU CLDN22 /// WWC2 (11732394_at) / Fold change /veh CLDN22 /// WWC2 (11732394_at) / RFU HLA-DPB1 (11760878_x_at) / Fold change /veh HLA-DPB1 (11760878_x_at) / RFU SPINT1 (11716480_a_at) / Fold change /veh SPINT1 (11716480_a_at) / RFU GAP43 (11754022_s_at) / Fold change /veh GAP43 (11754022_s_at) / RFU A4GNT (11735810_at) / Fold change /veh A4GNT (11735810_at) / RFU PRB3 (11715151_x_at) / Fold change /veh PRB3 (11715151_x_at) / RFU TUBB4B (11761932_at) / Fold change /veh TUBB4B (11761932_at) / RFU CAPN14 (11732068_a_at) / Fold change /veh CAPN14 (11732068_a_at) / RFU TMCC2 (11721928_a_at) / Fold change /veh TMCC2 (11721928_a_at) / RFU IRGQ (11745062_a_at) / Fold change /veh IRGQ (11745062_a_at) / RFU FAM174B (11720279_a_at) / Fold change /veh FAM174B (11720279_a_at) / RFU TMPRSS4 (11748680_a_at) / Fold change /veh TMPRSS4 (11748680_a_at) / RFU FAM212B (11763350_a_at) / Fold change /veh FAM212B (11763350_a_at) / RFU PLEKHG5 (11743358_a_at) / Fold change /veh PLEKHG5 (11743358_a_at) / RFU ZSCAN30 (11745921_a_at) / Fold change /veh ZSCAN30 (11745921_a_at) / RFU CMKLR1 (11741424_a_at) / Fold change /veh CMKLR1 (11741424_a_at) / RFU LOC101060620 /// MAPK8IP1 (11723275_at) / Fold change /veh LOC101060620 /// MAPK8IP1 (11723275_at) / RFU SPTSSB (11747773_x_at) / Fold change /veh SPTSSB (11747773_x_at) / RFU PRSS12 (11739890_at) / Fold change /veh PRSS12 (11739890_at) / RFU BIN1 (11741810_x_at) / Fold change /veh BIN1 (11741810_x_at) / RFU WNT11 (11732464_a_at) / Fold change /veh WNT11 (11732464_a_at) / RFU C10orf10 (11716521_a_at) / Fold change /veh C10orf10 (11716521_a_at) / RFU C5orf56 (11738089_at) / Fold change /veh C5orf56 (11738089_at) / RFU CYB561 (11721691_x_at) / Fold change /veh CYB561 (11721691_x_at) / RFU ANKRD19P (11752326_a_at) / Fold change /veh ANKRD19P (11752326_a_at) / RFU OR2T12 /// OR2T33 /// OR2T8 (11738714_s_at) / Fold change /veh OR2T12 /// OR2T33 /// OR2T8 (11738714_s_at) / RFU VCAN (11748164_a_at) / Fold change /veh VCAN (11748164_a_at) / RFU JSRP1 (11732532_at) / Fold change /veh JSRP1 (11732532_at) / RFU KRTAP10-11 (11738290_x_at) / Fold change /veh KRTAP10-11 (11738290_x_at) / RFU MYO3A (11730013_a_at) / Fold change /veh MYO3A (11730013_a_at) / RFU EBF3 (11725865_a_at) / Fold change /veh EBF3 (11725865_a_at) / RFU CAMK2N1 (11719241_x_at) / Fold change /veh CAMK2N1 (11719241_x_at) / RFU C5orf56 (11738088_a_at) / Fold change /veh C5orf56 (11738088_a_at) / RFU OLFML3 (11715873_a_at) / Fold change /veh OLFML3 (11715873_a_at) / RFU LOC100653217 /// NTM (11731650_a_at) / Fold change /veh LOC100653217 /// NTM (11731650_a_at) / RFU MAPK11 (11762145_a_at) / Fold change /veh MAPK11 (11762145_a_at) / RFU FIZ1 (11724087_x_at) / Fold change /veh FIZ1 (11724087_x_at) / RFU OASL (11726364_x_at) / Fold change /veh OASL (11726364_x_at) / RFU SOX15 (11748057_x_at) / Fold change /veh SOX15 (11748057_x_at) / RFU CD79A (11719716_a_at) / Fold change /veh CD79A (11719716_a_at) / RFU HIST1H1D (11736915_at) / Fold change /veh HIST1H1D (11736915_at) / RFU CASKIN2 (11723855_a_at) / Fold change /veh CASKIN2 (11723855_a_at) / RFU LOC730098 (11760151_x_at) / Fold change /veh LOC730098 (11760151_x_at) / RFU OR4N2 (11742367_at) / Fold change /veh OR4N2 (11742367_at) / RFU PRRT2 (11749266_a_at) / Fold change /veh PRRT2 (11749266_a_at) / RFU SNX32 (11753110_a_at) / Fold change /veh SNX32 (11753110_a_at) / RFU CDHR5 (11726645_a_at) / Fold change /veh CDHR5 (11726645_a_at) / RFU RCAN1 (11760418_a_at) / Fold change /veh RCAN1 (11760418_a_at) / RFU FAM167A (11723789_a_at) / Fold change /veh FAM167A (11723789_a_at) / RFU FAM26E (11764081_at) / Fold change /veh FAM26E (11764081_at) / RFU ISYNA1 (11749810_s_at) / Fold change /veh ISYNA1 (11749810_s_at) / RFU ACY1 (11761880_at) / Fold change /veh ACY1 (11761880_at) / RFU 11764098_at / Fold change /veh 11764098_at / RFU SAMD14 (11745864_x_at) / Fold change /veh SAMD14 (11745864_x_at) / RFU NPB (11741838_a_at) / Fold change /veh NPB (11741838_a_at) / RFU TMPRSS6 (11731388_a_at) / Fold change /veh TMPRSS6 (11731388_a_at) / RFU KRTAP10-2 (11738614_at) / Fold change /veh KRTAP10-2 (11738614_at) / RFU ARHGAP8 /// PRR5-ARHGAP8 (11727945_x_at) / Fold change /veh ARHGAP8 /// PRR5-ARHGAP8 (11727945_x_at) / RFU KRTAP5-7 /// NADSYN1 (11734609_at) / Fold change /veh KRTAP5-7 /// NADSYN1 (11734609_at) / RFU RASL12 (11751679_a_at) / Fold change /veh RASL12 (11751679_a_at) / RFU CDKN2B (11736163_a_at) / Fold change /veh CDKN2B (11736163_a_at) / RFU PRF1 (11729649_at) / Fold change /veh PRF1 (11729649_at) / RFU, ZNF638 /// ZNF638-IT1 / Fold change vs veh, ZNF638 /// ZNF638-IT1 / RFU, PANK3 / Fold change vs veh, PANK3 / RFU, SH3YL1 / Fold change vs veh, SH3YL1 / RFU, ZEB2 / Fold change vs veh, ZEB2 / RFU, NRIP1 / Fold change vs veh, NRIP1 / RFU, PTTG1IP / Fold change vs veh, PTTG1IP / RFU, CAPN2 / Fold change vs veh, CAPN2 / RFU, MED14 / Fold change vs veh, MED14 / RFU, SNORA58 / Fold change vs veh, SNORA58 / RFU, C1orf63 / Fold change vs veh, C1orf63 / RFU, LRRFIP1 / Fold change vs veh, LRRFIP1 / RFU, NDUFAF7 / Fold change vs veh, NDUFAF7 / RFU, SLC12A2 / Fold change vs veh, SLC12A2 / RFU, IBTK / Fold change vs veh, IBTK / RFU, ESF1 / Fold change vs veh, ESF1 / Fold change vs veh, TMEM50B / RFU, TAOK1 / Fold change vs veh, TAOK1 / RFU, ACBD3 / Fold change vs veh, ACBD3 / RFU, TMA16 / Fold change vs veh, TMA16 / RFU, RWDD3 / Fold change vs veh, RWDD3 / RFU, BCAT1 / Fold change vs veh, BCAT1 / RFU, EDEM3 / Fold change vs veh, EDEM3 / RFU, TMEM33 / Fold change vs veh, TMEM33 / RFU, WDR75 / Fold change vs veh, WDR75 / RFU, AHCTF1 / Fold change vs veh, AHCTF1 / RFU, TFRC / Fold change vs veh, TFRC / RFU, ZDHHC17 / Fold change vs veh, ZDHHC17 / RFU, NOM1 / Fold change vs veh, NOM1 / RFU, ARL8B / Fold change vs veh, ARL8B / RFU, ZBTB11 / Fold change vs veh, ZBTB11 / RFU, TAMM41 / Fold change vs veh, TAMM41 / RFU, KIAA1704 /// LOC100996395 / Fold change vs veh, KIAA1704 /// LOC100996395 / RFU, ING1 / Fold change vs veh, ING1 / RFU, TRMT61B / Fold change vs veh, TRMT61B / RFU, FUBP3 / Fold change vs veh, FUBP3 / RFU, TP53 / Fold change vs veh, TP53 / RFU, TNKS2 / Fold change vs veh, TNKS2 / RFU, ZFP14 / Fold change vs veh, ZFP14 / RFU, ACTR2 / Fold change vs veh, ACTR2 / RFU, PPP3R1 / Fold change vs veh, PPP3R1 / RFU, PIK3R1 / Fold change vs veh, PIK3R1 / RFU, HNRNPA1 / Fold change vs veh, HNRNPA1 / RFU, RNF170 / Fold change vs veh, RNF170 / RFU, ZNF28 / Fold change vs veh, ZNF28 / RFU, RNGTT / Fold change vs veh, RNGTT / RFU, OGT / Fold change vs veh, OGT / RFU, BRD1 / Fold change vs veh, BRD1 / RFU, MARS / Fold change vs veh, MARS / RFU, ZNF655 / Fold change vs veh, ZNF655 / RFU, FAHD1 / Fold change vs veh, FAHD1 / RFU, BDP1 / Fold change vs veh, BDP1 / RFU, LRRCC1 / Fold change vs veh, LRRCC1 / RFU, ARID1A / Fold change vs veh, ARID1A / RFU, ZNF146 / Fold change vs veh, ZNF146 / RFU, ZNF330 / Fold change vs veh, ZNF330 / RFU, GPN3 / Fold change vs veh, GPN3 / RFU, C9orf123 / Fold change vs veh, C9orf123 / RFU, N4BP2L2 / Fold change vs veh, N4BP2L2 / RFU, ARFIP1 / Fold change vs veh, ARFIP1 / RFU, FAM179B / Fold change vs veh, FAM179B / RFU, BCL10 / Fold change vs veh, BCL10 / RFU, UHRF1BP1L / Fold change vs veh, UHRF1BP1L / RFU, BET1 / Fold change vs veh, BET1 / RFU, CNOT2 / Fold change vs veh, CNOT2 / RFU, ZNF268 / Fold change vs veh, ZNF268 / Fold change vs veh, ZNF507 / RFU, DGCR2 / Fold change vs veh, DGCR2 / RFU, WDSUB1 / Fold change vs veh, WDSUB1 / Fold change vs veh, HSP90B1 /// MIR3652 / RFU, ADSS / Fold change vs veh, ADSS / RFU, GK / Fold change vs veh, GK / RFU, ZNF148 / Fold change vs veh, ZNF148 / RFU, TAF9 / Fold change vs veh, TAF9 / RFU, SLC1A5 / Fold change vs veh, SLC1A5 / RFU, SLMO2 / Fold change vs veh, SLMO2 / RFU, ABCC4 / Fold change vs veh, ABCC4 / RFU, LOC101060439 /// RAP1B / Fold change vs veh, LOC101060439 /// RAP1B / RFU, RFX7 / Fold change vs veh, RFX7 / RFU, GTPBP10 / Fold change vs veh, GTPBP10 / RFU, CNEP1R1 / Fold change vs veh, CNEP1R1 / RFU, BIVM-ERCC5 /// ERCC5 / Fold change vs veh, BIVM-ERCC5 /// ERCC5 / RFU, ILF3 / Fold change vs veh, ILF3 / RFU 11762660_at / Fold change /veh 11762660_at / RFU VCAN (11757783_s_at) / Fold change /veh VCAN (11757783_s_at) / RFU DDX43 (11728927_at) / Fold change /veh DDX43 (11728927_at) / RFU KRT8 (11758188_x_at) / Fold change /veh KRT8 (11758188_x_at) / RFU NKD1 (11759106_at) / Fold change /veh NKD1 (11759106_at) / RFU SRD5A1 (11742802_a_at) / Fold change /veh SRD5A1 (11742802_a_at) / RFU TPSAB1 /// TPSB2 (11721975_s_at) / Fold change /veh TPSAB1 /// TPSB2 (11721975_s_at) / RFU GSTM3 (11746129_a_at) / Fold change /veh GSTM3 (11746129_a_at) / RFU IL23R (11737362_x_at) / Fold change /veh IL23R (11737362_x_at) / RFU TMEM51 (11727254_a_at) / Fold change /veh TMEM51 (11727254_a_at) / RFU PIWIL2 (11732686_x_at) / Fold change /veh PIWIL2 (11732686_x_at) / RFU ORM1 (11744905_x_at) / Fold change /veh ORM1 (11744905_x_at) / RFU CCDC152 (11743942_at) / Fold change /veh CCDC152 (11743942_at) / RFU ECM1 (11717891_a_at) / Fold change /veh ECM1 (11717891_a_at) / RFU IL23R (11748794_a_at) / Fold change /veh IL23R (11748794_a_at) / RFU TNFAIP8L3 (11732012_x_at) / Fold change /veh TNFAIP8L3 (11732012_x_at) / RFU MBOAT4 (11741988_at) / Fold change /veh MBOAT4 (11741988_at) / RFU 11764193_at / Fold change /veh 11764193_at / RFU TMEM53 (11763286_at) / Fold change /veh TMEM53 (11763286_at) / RFU MAGEB2 (11727129_at) / Fold change /veh MAGEB2 (11727129_at) / RFU TMEM200A (11744735_a_at) / Fold change /veh TMEM200A (11744735_a_at) / RFU CCDC152 (11751479_a_at) / Fold change /veh CCDC152 (11751479_a_at) / RFU FAM211A (11726209_a_at) / Fold change /veh FAM211A (11726209_a_at) / RFU RGS16 (11746705_a_at) / Fold change /veh RGS16 (11746705_a_at) / RFU VCAN (11755009_s_at) / Fold change /veh VCAN (11755009_s_at) / RFU RHOB (11743442_s_at) / Fold change /veh RHOB (11743442_s_at) / RFU RGS16 (11720943_a_at) / Fold change /veh RGS16 (11720943_a_at) / RFU RGS16 (11720944_at) / Fold change /veh RGS16 (11720944_at) / RFU, VPS4B / Fold change vs veh, VPS4B / RFU, CREB1 / Fold change vs veh, CREB1 / RFU, DNAJC13 / Fold change vs veh, DNAJC13 / RFU, GNAQ / Fold change vs veh, GNAQ / RFU, CDK5R1 / Fold change vs veh, CDK5R1 / RFU, ZRANB3 / Fold change vs veh, ZRANB3 / RFU, CUL4A / Fold change vs veh, CUL4A / RFU, CCNY / Fold change vs veh, CCNY / RFU, UFL1 / Fold change vs veh, UFL1 / RFU, COG3 / Fold change vs veh, COG3 / RFU, DIAPH2 / Fold change vs veh, DIAPH2 / RFU, SKA2 / Fold change vs veh, SKA2 / RFU, AFF3 / Fold change vs veh, AFF3 / RFU, LMF1 / Fold change vs veh, LMF1 / RFU, IPO11 / Fold change vs veh, IPO11 / RFU, DFFB / Fold change vs veh, DFFB / RFU, FOXP1 / Fold change vs veh, FOXP1 / RFU, CARD8 / Fold change vs veh, CARD8 / RFU, STRN3 / Fold change vs veh, STRN3 / RFU, ADK / Fold change vs veh, ADK / RFU, RASSF2 / Fold change vs veh, RASSF2 / RFU, WIPF1 / Fold change vs veh, WIPF1 / RFU, LARP1B / Fold change vs veh, LARP1B / RFU, RASA1 / Fold change vs veh, RASA1 / RFU, RB1 / Fold change vs veh, RB1 / RFU, PPFIA1 / Fold change vs veh, PPFIA1 / RFU, MAT2A / Fold change vs veh, MAT2A / RFU, CCT5 / Fold change vs veh, CCT5 / RFU, WDR92 / Fold change vs veh, WDR92 / RFU, CUX1 / Fold change vs veh, CUX1 / RFU, TTC7A / Fold change vs veh, TTC7A / RFU, TMEM135 / Fold change vs veh, TMEM135 / RFU, DEPTOR / Fold change vs veh, DEPTOR / RFU, CPM / Fold change vs veh, CPM / RFU, DNAJB6 / Fold change vs veh, DNAJB6 / RFU, CACNA2D3 / Fold change vs veh, CACNA2D3 / RFU, DTX4 / Fold change vs veh, DTX4 / RFU, TFCP2 / Fold change vs veh, TFCP2 / RFU, GMCL1 /// GMCL1P1 / Fold change vs veh, GMCL1 /// GMCL1P1 / RFU, AEBP2 / Fold change vs veh, AEBP2 / RFU, SNHG1 /// SNORD22 /// SNORD25 /// SNORD26 /// SNORD27 /// SNORD28 /// SNORD29 /// SNORD31 / Fold change vs veh, SNHG1 /// SNORD22 /// SNORD25 /// SNORD26 /// SNORD27 /// SNORD28 /// SNORD29 /// SNORD31 / Fold change (Aza/veh), C12orf56 (ProbeSet 11735607_a_at) / Fold change (ACY-1035/veh), C12orf56 (ProbeSet 11735607_a_at) / Fold change (Aza/veh), FGFR1OP (ProbeSet 11751329_s_at) / Fold change (ACY-1035/veh), FGFR1OP (ProbeSet 11751329_s_at) / Fold change (Aza/veh), VPS36 (ProbeSet 11739960_a_at) / Fold change (ACY-1035/veh), VPS36 (ProbeSet 11739960_a_at) / RFU SYPL1 (11715823_x_at) / Fold change /veh SYPL1 (11715823_x_at) / RFU IGFBP7 (11715501_s_at) / Fold change /veh IGFBP7 (11715501_s_at) / RFU REEP3 (11722064_at) / Fold change /veh REEP3 (11722064_at) / RFU IGLL1 (11728026_x_at) / Fold change /veh IGLL1 (11728026_x_at): dose or concentration left out as unconfirmed. The following applies: ProbeSet 11745789_a_at; LIST D.

With `Nc1ccc(-c2cccs2)cc1NC(=O)c1ccc2c(c1)cc(C1CC1)n2CCN1CCOCC1` [ACY-1035], the “Fold change vs veh, TMEM135” value amounted to 0.97.
